Where “and” joins values, the source holds several entries; their conditions need not be identical. Equal values may be shown once. Where a name gives a salt, the structure may show the parent alone. Read-outs that look alike come from different tables or passages of the source.
Tests used:
[1] = test system: human bitter taste detection (sensory panel); experiment: Human bitter taste detection threshold, three-alternative forced choice (3-AFC), BET method; format: in vivo; conditions: 32 panelists, group BET
From the text: Based on bibliographic studies, preliminary works performed in the laboratory, and the results of taste receptor functional assays, the following vitamins were included in this study: vitamin B1 (thiamine hydrochloride), vitamin B2 (riboflavin phosphate), vitamin B3 (niacinamide), and vitamin B6 (pyridoxine hydrochloride). These vitamins are present in high quantities in nutritional supplements, safe for humans (except at very high concentrations), and can induce a strong bitter taste. These concentrations were determined according to the toxicity threshold of each compound tested and the maximum daily reference intake. These compounds were prepared in commercial mineral water (Evian®, Evian, France).
The threshold values for bitter taste detection were determined by 32 panelists (18–65 years old, 14 males and 18 females, without sensory perception disorders, food allergies, drug treatments, or heart, lung, or cardiac pathologies) who were recruited from Dijon (France) and the surrounding areas. An ethical committee approved this study (Personal Protection Committee of Rennes—Ouest V, protocol code 2018A01342-53), and all panelists signed an informed consent form. A sensory test called three-alternative forced choice (3-AFC) was used in accordance with the protocol detailed in NF ISO 13301. Before performing the measurement sessions, four training sessions were provided to familiarize the panelists with the bitter taste, test procedure, and signal acquisition software. In this discriminative test, six series consisting of three samples, which were each encoded using randomly generated three-digit numbers, were simultaneously delivered to the panelists. The six 3-AFC presentations contained two blank samples (commercial mineral water, manufacturer: Evian, France) and ascending concentrations of vitamin solution. Before the test, subjects were advised that each presentation consisted of two samples that contained only water and one sample that contained a taste. For each 3-AFC presentation, subjects were asked to take the samples sequentially from left to right. Then, they placed the entirety of each sample solution in their mouths and carefully gargled to ensure that the solution was dispersed throughout the mouth. A sip-and-spit procedure was used; subjects rinsed their mouths with commercial mineral water between each series of tests. Subjects were asked to indicate which of the samples contained the stimulus. If a subject perceived no difference between the three samples, he or she was asked to choose one (forced choice). The sensory tests were conducted in a room devoted to sensory evaluation. For the case of colored samples, black-colored glasses were used, and tastings were performed under red light. […] The aim of this sensory analysis was to determine the bitter taste detection threshold for these vitamins and not an olfactory detection threshold. Therefore, the measurements were conducted using pinched nose clips. The subjects waited one minute between each series and had to thoroughly rinse their mouths. Four repetitions were performed per subject for each vitamin to obtain statistically interpretable results, which represented a total of 288 samples. During the sensory analysis session, a bitterness detection threshold of only two vitamins was used (36 samples) to avoid the ingestion of a high vitamin quantity, which is potentially harmful. The answers from the panelists were collected using software dedicated to sensory analysis (FIZZ acquisition V.2.51 software).
The best estimate threshold (BET) method was used to determine the bitter detection threshold for four vitamins. The individual best-estimated detection threshold (BET) was proposed in ASTM E679-04. ASTM E679-04 is a standard practice for the determination of odor and taste thresholds via a forced-choice ascending concentration series method of limits. […]

25 human TAS2Rs = experiment: Taste receptor functional assay, panel of 25 human TAS2Rs; format: cell-based; conditions: lowest concentration that could elicit TAS2R activation
Description: A functional expression study was carried out as described previously. TAS2R expression vectors (pcDNA5FRT-SST3-TAS2R-HSV and pEAK-10-SST3-TAS2RHSV) were kindly provided by Wolfgang Meyerhof (German Institute of Human Nutrition Postdam-Rehbruecke, Nuthetal, Germany). For all constructs, the N-terminus contained the first 45 amino acids of rat somatostatin 3 (SST3) to improve membrane targeting. A sequence coding for a herpes simplex virus glycoprotein D epitope (HSV-tag) was added at the C-terminus to allow immunocytochemical detection of the receptor [13, 14, 23, 24]. […]
(§1) Approximately 24–26 h after transfection, cells were loaded for 1 h at 37 °C with Fluo4-AM (2 µM, Molecular Probes), which had been previously mixed with pluronic acid F-127 (0.01%) in C1 buffer (130 mM NaCl, 5 mM KCl, 10 mM HEPES, 2 mM CaCl2, 10 mM pyruvic acid, pH 7.4, 300 mOsm) containing 2.5 mM probenecid (Life Technologies). […] The calcium signal was recorded for 90 s after injection of a range of compounds using a Flexstation 3 fluorometric imaging plate reader (Molecular Devices) at a wavelength of 510 nm after excitation at 488 nm. All substance concentrations were measured in triplicate in at least three independent experiments. […]

TAS2R1 [2] = target: T1, TAS2R1 (Homo sapiens, UniProt Q9NYW7)
Description: (§2) A functional expression study was carried out as described previously. TAS2R expression vectors (pcDNA5FRT-SST3-TAS2R-HSV and pEAK-10-SST3-TAS2RHSV) were kindly provided by Wolfgang Meyerhof (German Institute of Human Nutrition Postdam-Rehbruecke, Nuthetal, Germany). For all constructs, the N-terminus contained the first 45 amino acids of rat somatostatin 3 (SST3) to improve membrane targeting. A sequence coding for a herpes simplex virus glycoprotein D epitope (HSV-tag) was added at the C-terminus to allow immunocytochemical detection of the receptor [13, 14, 23, 24]. HEK293T cells stably expressing the chimeric G protein α subunit Gα16gust44 [25, 26] were seeded into poly-D-lysine-coated 96-well black plates (0.35 × 10^5 cells/well) in high-glucose DMEM supplemented with 2 mM GlutaMAX, 10% dialysed fetal bovine serum penicillin/streptomycin, and G418 (400 µg/mL), and then placed under a humidified and controlled atmosphere (37 °C and 6.3% CO2) overnight. […]
as §1
(§3) To obtain a dose–response curve, the ratio between the maximum variation in fluorescence after ligand addition and the initial fluorescence before addition (ΔF/F0) was calculated for each well. The fluorescence signals collected for each replicate were averaged for the same substance concentration, and the fluorescence changes in the corresponding mock-transfected cells were subtracted. […]

TAS2R39 [3] = target: T2, TAS2R39 (Homo sapiens, UniProt P59534); conditions: vitamin B1 as thiamine hydrochloride, up to M.A.C 1 mM
Description: as §2, §1, §3

TAS2R7 [4] = target: T3, TAS2R7 (Homo sapiens, UniProt Q9NYW3); conditions: cited from earlier work
T3 sequence (Q9NYW3 1-318): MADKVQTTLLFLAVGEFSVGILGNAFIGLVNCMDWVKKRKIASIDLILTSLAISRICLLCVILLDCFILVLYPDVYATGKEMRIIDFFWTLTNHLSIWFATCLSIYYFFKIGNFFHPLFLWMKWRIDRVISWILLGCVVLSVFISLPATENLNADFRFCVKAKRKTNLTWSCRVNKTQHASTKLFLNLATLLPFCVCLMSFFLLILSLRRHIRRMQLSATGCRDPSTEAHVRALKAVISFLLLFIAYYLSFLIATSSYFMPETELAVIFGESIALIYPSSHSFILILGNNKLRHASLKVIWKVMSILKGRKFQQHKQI

TAS2R7 [5] = target: T3, TAS2R7; experiment: Calcium mobilization assay, cells transiently expressing TAS2R7; format: cell-based; design: expressed in transfected cells; host or cells: HEK293T cells stably expressing Gα16gust44; on TAS2R Receptor 7 response: key: +: positive responses (lines with background color)
Description: A functional expression study was carried out as described previously. TAS2R expression vectors (pcDNA5FRT-SST3-TAS2R-HSV and pEAK-10-SST3-TAS2RHSV) were kindly provided by Wolfgang Meyerhof (German Institute of Human Nutrition Postdam-Rehbruecke, Nuthetal, Germany). For all constructs, the N-terminus contained the first 45 amino acids of rat somatostatin 3 (SST3) to improve membrane targeting. A sequence coding for a herpes simplex virus glycoprotein D epitope (HSV-tag) was added at the C-terminus to allow immunocytochemical detection of the receptor [13, 14, 23, 24]. HEK293T cells stably expressing the chimeric G protein α subunit Gα16gust44 [25, 26] were seeded into poly-D-lysine-coated 96-well black plates (0.35 × 10^5 cells/well) in high-glucose DMEM supplemented with 2 mM GlutaMAX, 10% dialysed fetal bovine serum penicillin/streptomycin, and G418 (400 µg/mL), and then placed under a humidified and controlled atmosphere (37 °C and 6.3% CO2) overnight. After 24–26 h of incubation, cells were transiently transfected with TAS2R expression plasmids (120 ng/well) using Lipofectamine 2000 reagent (0.4 µL/well) (Thermo Fisher Scientific, Illkirch-Graffenstaden, France).
Approximately 24–26 h after transfection, cells were loaded for 1 h at 37 °C with Fluo4-AM (2 µM, Molecular Probes), which had been previously mixed with pluronic acid F-127 (0.01%) in C1 buffer (130 mM NaCl, 5 mM KCl, 10 mM HEPES, 2 mM CaCl2, 10 mM pyruvic acid, pH 7.4, 300 mOsm) containing 2.5 mM probenecid (Life Technologies). Approximately one hour after loading, the plate was rinsed twice with 100 µL of C1 buffer. The calcium signal was recorded for 90 s after injection of a range of compounds using a Flexstation 3 fluorometric imaging plate reader (Molecular Devices) at a wavelength of 510 nm after excitation at 488 nm. All substance concentrations were measured in triplicate in at least three independent experiments. As cell transfection and substances can interfere with cellular viability and calcium assays, all compounds were tested on mock-transfected cells (cells transfected with empty vectors) on the same plates for all substance concentrations used.
To obtain a dose–response curve, the ratio between the maximum variation in fluorescence after ligand addition and the initial fluorescence before addition (ΔF/F0) was calculated for each well. The fluorescence signals collected for each replicate were averaged for the same substance concentration, and the fluorescence changes in the corresponding mock-transfected cells were subtracted. […] The dose–response data were fitted, and EC50 values were calculated using a four-parameter logistic equation using SigmaPlot software (Systat Software, San Jose, CA, USA). […]

TAS2R39 [6] = target: T2, TAS2R39; conditions: cited from earlier work
TAS2R1 [7] = target: T1, TAS2R1; conditions: cited from earlier work
TAS2R14 = target: T4, TAS2R14 (Homo sapiens, UniProt Q9NYV8); experiment: Calcium mobilization assay, cells transiently expressing TAS2R14; format: cell-based; on TAS2R Receptor 14 response: key: +: positive responses (lines with background color)
T4 construct: expressed in transfected cells; host or cells: HEK293T cells stably expressing Gα16gust44
T4 sequence (Q9NYV8 1-317): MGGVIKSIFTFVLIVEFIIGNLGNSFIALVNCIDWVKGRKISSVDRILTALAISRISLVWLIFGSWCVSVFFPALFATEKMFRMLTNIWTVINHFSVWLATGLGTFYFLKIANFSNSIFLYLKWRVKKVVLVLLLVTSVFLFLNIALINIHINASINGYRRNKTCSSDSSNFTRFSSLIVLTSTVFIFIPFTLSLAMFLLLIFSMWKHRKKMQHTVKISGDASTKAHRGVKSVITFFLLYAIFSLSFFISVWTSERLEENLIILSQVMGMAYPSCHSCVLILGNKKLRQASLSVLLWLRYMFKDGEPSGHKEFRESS
Description: as §2, §1, §3

[8] = HEK293T-Gα16gust44 cells, calcium signal, up to M.A.C

T1 sequence (Q9NYW7 whole entry): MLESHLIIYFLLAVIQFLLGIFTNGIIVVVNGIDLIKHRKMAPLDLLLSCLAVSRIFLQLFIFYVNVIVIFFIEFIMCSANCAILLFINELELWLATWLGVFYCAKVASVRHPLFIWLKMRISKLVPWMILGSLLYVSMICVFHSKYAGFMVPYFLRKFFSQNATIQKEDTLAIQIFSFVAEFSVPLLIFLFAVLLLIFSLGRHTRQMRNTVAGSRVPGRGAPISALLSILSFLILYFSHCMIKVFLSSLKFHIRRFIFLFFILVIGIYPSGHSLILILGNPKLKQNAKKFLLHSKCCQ
T2 sequence (P59534 whole entry): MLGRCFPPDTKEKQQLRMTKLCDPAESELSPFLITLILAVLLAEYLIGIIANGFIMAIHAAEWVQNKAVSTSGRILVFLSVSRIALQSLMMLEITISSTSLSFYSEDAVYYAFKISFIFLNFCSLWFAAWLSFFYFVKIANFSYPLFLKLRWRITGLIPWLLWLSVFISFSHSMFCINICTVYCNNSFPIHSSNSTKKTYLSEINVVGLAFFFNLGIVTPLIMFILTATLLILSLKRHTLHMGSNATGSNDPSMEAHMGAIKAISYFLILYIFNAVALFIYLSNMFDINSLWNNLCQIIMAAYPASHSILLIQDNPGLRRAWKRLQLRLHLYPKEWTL

TAS2R1 activation (TAS2R1 [2]; 0.1 mM) | TAS2R Receptor 1 response (TAS2R1 [2]; [8]) | TAS2R39 activation (TAS2R39 [3]) | TAS2R7 activation (TAS2R7 [5]; vitamin B1 as thiamine hydrochloride, up to M.A.C 1 mM) | TAS2R14 response (TAS2R14; 100 mM) | TAS2R Receptor 14 response (TAS2R14; [8]) | EC50 (TAS2R14; TAS2R14-expressing HEK293T cells, Fluo-4 calcium response, read-out: EC50 (half-maximal TAS2R14 activation)) [mM] | TAS2R7 response (TAS2R7 [5]; 100 mM) | TAS2R Receptor 7 response (TAS2R7 [5]; [8]) | EC50 (TAS2R7 [5]; TAS2R7-expressing HEK293T cells, Fluo-4 calcium response, read-out: EC50 (half-maximal TAS2R7 activation)) [mM] | SMILES | Human Bitter Taste Detection Threshold ([1]; Figure 3, aqueous solution) [mM] | Human Bitter Taste Detection Threshold ([1]; aqueous solution (mineral water), nose clips) | Human Bitter Taste Detection Threshold ([1]; aqueous solution (mineral water), nose clips, listed as B1) [mM] | Human Bitter Taste Detection Threshold ([1]; aqueous solution (mineral water), nose clips, listed as vitamin B1) [mM] | Cellular Bitter Taste Detection Threshold (25 human TAS2Rs) | TAS2R7 activation (TAS2R7 [4]) | TAS2R39 activation (TAS2R39 [6]) | TAS2R1 activation (TAS2R1 [7]) | Human Bitter Taste Detection Threshold ([1]; aqueous solution (mineral water), nose clips, listed as B6) [mM] | Human Bitter Taste Detection Threshold ([1]; aqueous solution (mineral water), nose clips, listed as vitamin B6) [mM]
– | – | – | – | – | – | – | – | – | – | NC(=O)c1cccnc1 [Vitamin B3, niacinamide] | 5.5 | 5.5 mM and 5.50 mM | – | – | – | – | – | – | – | –
activation | + | unable to demonstrate the activation | unable to demonstrate the activation | – | – | – | – | – | – | Cc1ncc(C[n+]2csc(CCO)c2C)c(N)n1 [Vitamin B1, thiamine hydrochloride] | 1.1 | – | 1.10 | 1.1 | 0.1 mM and 0.10 mM | activation | activation | activation | – | –
– | – | – | – | robust response | + | 10.5 ± 1.47 | robust response | + | 25.5 ± 11.8 | Cc1ncc(CO)c(CO)c1O [Vitamin B6, pyridoxine hydrochloride] | 5.2 | – | – | – | 1 mM and 1.00 mM | – | – | – | 5.20 | 5.2

Reference: article PMC9571608, “Detection of Bitterness in Vitamins Is Mediated by the Activation of Bitter Taste Receptors” (Nutrients, 2022)
